Reference: ChEMBL document CHEMBL1201861, “Genomics of Drug Sensitity in Cancer screening data, Wellcome Trust Sanger Institute”

Columns and labels:
[1] = tested on: NCCIT; assay: SANGER: Inhibition of human NCCIT cell growth in a cell viability assay.; format: functional, cell-based; details: Homo sapiens, NCCIT
[2] = tested on: NCI-H2228; assay: cells; format: functional, cell-based, Homo sapiens; details: Homo sapiens, NCI-H2228;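 note: growth inhibition of human NCI-H2228 cells, read out by a cell viability assay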
Description: SANGER: Inhibition of human NCI-H2228 cell growth in a cell viability assay.

[3] = tested on: OVCAR-3; assay: cells; format: functional, cell-based, Homo sapiens; details: Homo sapiens, OVCAR-3;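 note: growth inhibition of human OVCAR-3 cells, determined by a cell viability assay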
Description: SANGER: Inhibition of human OVCAR-3 cell growth in a cell viability assay.

[4] = tested on: C-33-A; assay: cells; format: functional, cell-based, Homo sapiens; details: Homo sapiens, C-33-A;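 note: cell viability assay measuring growth inhibition of C-33-A cells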
Description: SANGER: Inhibition of human C-33-A cell growth in a cell viability assay.

[5] = tested on: YT; assay: cells; format: functional, cell-based, Homo sapiens; details: Homo sapiens, YT
Description: SANGER: Inhibition of human YT cell growth in a cell viability assay.

[6] = tested on: MHH-ES-1; assay: cells; format: functional, cell-based, Homo sapiens; details: Homo sapiens, MHH-ES-1
Description: SANGER: Inhibition of human MHH-ES-1 cell growth in a cell viability assay.

[7] = tested on: SW756; assay: cells; format: functional, cell-based, Homo sapiens; details: Homo sapiens, SW756;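 note: growth inhibition of human SW756 cells, read out with a cell viability assay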
Description: SANGER: Inhibition of human SW756 cell growth in a cell viability assay.

[8] = tested on: CAKI-1; assay: cells; format: functional, cell-based, Homo sapiens; details: Homo sapiens, CAKI-1;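 note: growth inhibition of CAKI-1 cells, measured by a cell viability assay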
Description: SANGER: Inhibition of human CAKI-1 cell growth in a cell viability assay.

[9] = tested on: EVSA-T; assay: cells; format: functional, cell-based, Homo sapiens; details: Homo sapiens, EVSA-T;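 note: growth inhibition of EVSA-T cells, read out with a cell viability assay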
Description: SANGER: Inhibition of human EVSA-T cell growth in a cell viability assay.

[10] = tested on: KYSE-70 cell line; assay: cells; format: functional, cell-based, Homo sapiens; details: Homo sapiens, KYSE-70;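 note: cell viability assay read-out, with IC50 expressing suppression of KYSE-70 cell growth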
Description: SANGER: Inhibition of human KYSE-70 cell growth in a cell viability assay.

[11] = tested on: MDA-MB-134-VI; assay: cells; format: functional, cell-based, Homo sapiens; details: Homo sapiens, MDA-MB-134-VI
Description: SANGER: Inhibition of human MDA-MB-134-VI cell growth in a cell viability assay.

[12] = tested on: SK-MEL-28; assay: cells; format: functional, cell-based, Homo sapiens; details: Homo sapiens, SK-MEL-28;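 note: growth inhibition of human SK-MEL-28 cells, read out with a cell viability assay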
Description: SANGER: Inhibition of human SK-MEL-28 cell growth in a cell viability assay.

[13] = tested on: NCI-H1417; assay: cells; format: functional, cell-based, Homo sapiens; details: Homo sapiens, NCI-H1417;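 note: human NCI-H1417 cells, growth inhibition determined with a cell viability readout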
Description: SANGER: Inhibition of human NCI-H1417 cell growth in a cell viability assay.

[14] = tested on: Huh-7; assay: cells; format: functional, cell-based, Homo sapiens; details: Homo sapiens, Huh-7;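 note: HuH-7 cell growth inhibition, read out with a cell viability assay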
Description: SANGER: Inhibition of human HuH-7 cell growth in a cell viability assay.

[15] = tested on: BL-41; assay: cells; format: functional, cell-based, Homo sapiens; details: Homo sapiens, BL-41;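 note: growth inhibition of human BL-41 cells, read out with a cell viability assay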
Description: SANGER: Inhibition of human BL-41 cell growth in a cell viability assay.

[16] = tested on: DMS-153; assay: cells; format: functional, cell-based, Homo sapiens; details: Homo sapiens, DMS-153
Description: SANGER: Inhibition of human DMS-153 cell growth in a cell viability assay.

[17] = tested on: 5637; assay: cells; format: functional, cell-based, Homo sapiens; details: Homo sapiens
Description: SANGER: Inhibition of human 5637 cell growth in a cell viability assay.

[18] = tested on: KP-N-YN; assay: cells; format: functional, cell-based, Homo sapiens; details: Homo sapiens, KP-N-YN;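 note: growth inhibition of KP-N-YN cells, read out with a cell viability assay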
Description: SANGER: Inhibition of human KP-N-YN cell growth in a cell viability assay.

[19] = tested on: NCI-H187; assay: cells; format: functional, cell-based, Homo sapiens; details: Homo sapiens, NCI-H187;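 note: growth inhibition of NCI-H187 cells, read out as cell viability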
Description: SANGER: Inhibition of human NCI-H187 cell growth in a cell viability assay.

[20] = tested on: HT-1080; assay: cells; format: functional, cell-based, Homo sapiens; details: Homo sapiens, HT-1080
Description: SANGER: Inhibition of human HT-1080 cell growth in a cell viability assay.

[21] = tested on: MHH-CALL-2; assay: cells; format: functional, cell-based, Homo sapiens; details: Homo sapiens, MHH-CALL-2;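 note: growth inhibition of the cell line, read out in a cell viability assay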
Description: SANGER: Inhibition of human MHH-CALL-2 cell growth in a cell viability assay.

[22] = tested on: HT-1376; assay: cells; format: functional, cell-based, Homo sapiens; details: Homo sapiens, HT-1376
Description: SANGER: Inhibition of human HT-1376 cell growth in a cell viability assay.

[23] = tested on: HT1197; assay: cells; format: functional, cell-based, Homo sapiens, HT-1197; details: Homo sapiens, HT1197
Description: SANGER: Inhibition of human HT-1197 cell growth in a cell viability assay.

[24] = tested on: SN12C; assay: cells; format: functional, cell-based, Homo sapiens; details: Homo sapiens, SN12C;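 note: growth inhibition of human SN12C cells, measured by a cell viability assay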
Description: SANGER: Inhibition of human SN12C cell growth in a cell viability assay.

[25] = tested on: HCC1937; assay: cells; format: functional, cell-based, Homo sapiens; details: Homo sapiens, HCC1937;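 note: growth inhibition measured with a cell viability read-out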
Description: SANGER: Inhibition of human HCC1937 cell growth in a cell viability assay.

[26] = tested on: NCI-H1437; assay: cells; format: functional, cell-based, Homo sapiens; details: Homo sapiens, NCI-H1437;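 note: growth inhibition of human NCI-H1437 cells, read out by a cell viability assay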
Description: SANGER: Inhibition of human NCI-H1437 cell growth in a cell viability assay.

[27] = tested on: LU-99A; assay: cells; format: functional, cell-based, Homo sapiens; details: Homo sapiens, LU-99A;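 note: growth inhibition of LU-99A cells, read out with a cell viability assay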
Description: SANGER: Inhibition of human LU-99A cell growth in a cell viability assay.

[28] = tested on: SW1990; assay: cells; format: functional, cell-based, Homo sapiens; details: Homo sapiens, SW1990
Description: SANGER: Inhibition of human SW1990 cell growth in a cell viability assay.

[29] = tested on: Ca9-22; assay: cells; format: functional, cell-based, Homo sapiens; details: Homo sapiens, Ca9-22;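 note: growth inhibition of Ca9-22 cells, read out with a cell viability assay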
Description: SANGER: Inhibition of human Ca9-22 cell growth in a cell viability assay.

[30] = tested on: LB647-SCLC; assay: cells; format: functional, cell-based, Homo sapiens; details: Homo sapiens, LB647-SCLC;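 note: cell growth inhibition, read out by a viability assay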
Description: SANGER: Inhibition of human LB647-SCLC cell growth in a cell viability assay.

[31] = tested on: SK-MEL3; assay: cells; format: functional, cell-based, Homo sapiens, SK-MEL-3; details: Homo sapiens, SK-MEL3;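 note: growth inhibition of human SK-MEL-3 cells, read out with a cell viability assay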
Description: SANGER: Inhibition of human SK-MEL-3 cell growth in a cell viability assay.

[32] = tested on: A 172; assay: cells; format: functional, cell-based, Homo sapiens; details: Homo sapiens, A 172;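 note: growth inhibition of A172 cells, measured with a cell viability readout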
Description: SANGER: Inhibition of human A172 cell growth in a cell viability assay.

[33] = tested on: NCI-H2141; assay: cells; format: functional, cell-based, Homo sapiens; details: Homo sapiens, NCI-H2141;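 note: growth inhibition of human NCI-H2141 cells, read out with a cell viability assay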
Description: SANGER: Inhibition of human NCI-H2141 cell growth in a cell viability assay.

[34] = tested on: LN-405; assay: cells; format: functional, cell-based, Homo sapiens; details: Homo sapiens, LN-405
Description: SANGER: Inhibition of human LN-405 cell growth in a cell viability assay.

[35] = tested on: T98G; assay: cells; format: functional, cell-based, Homo sapiens; details: Homo sapiens, T98G;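 note: growth inhibition of T98G cells, read out by a cell viability assay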
Description: SANGER: Inhibition of human T98G cell growth in a cell viability assay.

[36] = tested on: GDM-1; assay: cells; format: functional, cell-based, Homo sapiens; details: Homo sapiens, GDM-1;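 note: cell viability readout used to measure growth inhibition of human GDM-1 cells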
Description: SANGER: Inhibition of human GDM-1 cell growth in a cell viability assay.

[37] = tested on: NCI-H1573; assay: cells; format: functional, cell-based, Homo sapiens; details: Homo sapiens, NCI-H1573;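 note: growth inhibition of NCI-H1573 cells, read out with a cell viability assay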
Description: SANGER: Inhibition of human NCI-H1573 cell growth in a cell viability assay.

[38] = tested on: 639-V; assay: cells; format: functional, cell-based, Homo sapiens; details: Homo sapiens, 639-V;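 note: growth inhibition of 639-V cells, read out with a cell viability assay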
Description: SANGER: Inhibition of human 639-V cell growth in a cell viability assay.

[39] = tested on: CHP-126; assay: cells; format: functional, cell-based, Homo sapiens; details: Homo sapiens, CHP-126
Description: SANGER: Inhibition of human CHP-126 cell growth in a cell viability assay.

[40] = tested on: G-402; assay: cells; format: functional, cell-based, Homo sapiens; details: Homo sapiens, G-402
Description: SANGER: Inhibition of human G-402 cell growth in a cell viability assay.

[41] = tested on: SK-OV-3; assay: cells; format: functional, cell-based, Homo sapiens; details: Homo sapiens, SK-OV-3;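 note: growth inhibition of SK-OV-3 human cells, read out with a cell viability assay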
Description: SANGER: Inhibition of human SK-OV-3 cell growth in a cell viability assay.

[42] = tested on: UMUC3; assay: cells; format: functional, cell-based, Homo sapiens; details: Homo sapiens, UMUC3;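 note: growth inhibition of human UM-UC-3 cells, read out with a cell viability assay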
Description: SANGER: Inhibition of human UM-UC-3 cell growth in a cell viability assay.

[43] = tested on: IGR-1; assay: cells; format: functional, cell-based, Homo sapiens; details: Homo sapiens, IGR-1;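 note: growth inhibition of human IGR-1 cells, read out with a cell viability assay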
Description: SANGER: Inhibition of human IGR-1 cell growth in a cell viability assay.

[44] = tested on: BXPC-3; assay: cells; format: functional, cell-based, Homo sapiens; details: Homo sapiens, BXPC-3;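 note: growth inhibition of human BxPC-3 cells, read out by a cell viability assay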
Description: SANGER: Inhibition of human BxPC-3 cell growth in a cell viability assay.

[45] = tested on: GP5d; assay: cells; format: functional, cell-based, Homo sapiens; details: Homo sapiens, GP5d;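 note: growth inhibition of human GP5d cells, read out with a cell viability assay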
Description: SANGER: Inhibition of human GP5d cell growth in a cell viability assay.

Work on `Cc1cc([N+](=O)[O-])ccc1NS(=O)(=O)c1cc(Cl)ccc1Cl` yielded an IC50 [1] of 13.4 µM, an IC50 [2] of 17 µM and an IC50 [3] of 5.81 µM. The IC50 [4] was 2000 nM, the IC50 [5] was 1830 nM and the IC50 [6] was 6.43 µM. It also gave an IC50 [7] of 2970 nM, an IC50 [8] of 13.2 µM and an IC50 [9] of 11.9 µM. The IC50 [10] was 812 nM, the IC50 [11] was greater than 32 µM and the IC50 [12] was 355 nM. For the same compound, the IC50 [13] was 23.2 µM, the IC50 [14] was 1570 nM and the IC50 [15] was greater than 32 µM. For the same compound, the IC50 [16] was 29.1 µM, the IC50 [17] was 7.25 µM and the IC50 [18] was 10.2 µM. It also gave an IC50 [19] of 12.3 µM, an IC50 [20] of 675 nM and an IC50 [21] of 18.2 µM. For the same compound, the IC50 [22] was 3.81 µM, the IC50 [23] was 11.2 µM and the IC50 [24] was 3.64 µM. It also gave an IC50 [25] of 6.27 µM, an IC50 [26] of 2730 nM and an IC50 [27] of 1240 nM. The IC50 [28] was 5.38 µM, the IC50 [29] was 6 µM and the IC50 [30] was greater than 32 µM. The IC50 [31] was 4.68 µM, the IC50 [32] was 5.91 µM and the IC50 [33] was greater than 32 µM. It also gave an IC50 [34] of 11.9 µM, an IC50 [35] of 10.6 µM and an IC50 [36] of 8370 nM. It also gave an IC50 [37] greater than 32 µM, an IC50 [38] of 1610 nM and an IC50 [39] greater than 32 µM. The IC50 [40] was 4.65 µM, the IC50 [41] was 9.13 µM and the IC50 [42] was 1670 nM. The IC50 [43] was 2010 nM, the IC50 [44] was 6.84 µM and the IC50 [45] was 1140 nM.
`COc1cccc2c1C(=O)c1c(O)c3c(c(O)c1C2=O)C[C@@](O)(C(=O)CO)C[C@@H]3O[C@H]1C[C@H](N)[C@H](O)[C@H](C)O1` [DOXORUBICIN] gave an IC50 [1] of 0.0201 µM, an IC50 [2] of 0.0135 µM and an IC50 [3] of 0.47 µM. For the same compound, the IC50 [4] was 32.9 nM, the IC50 [5] was greater than 1020 nM and the IC50 [6] was 0.0216 µM. The IC50 [7] was 275 nM, the IC50 [8] was 0.375 µM and the IC50 [9] was greater than 1.02 µM. It also gave an IC50 [10] of 225 nM, an IC50 [11] greater than 1.02 µM and an IC50 [12] greater than 1020 nM. It also gave an IC50 [13] of 0.37 µM, an IC50 [14] of 258 nM and an IC50 [15] of 0.122 µM. The IC50 [16] was 0.698 µM, the IC50 [17] was 0.0319 µM and the IC50 [18] was greater than 1.02 µM. It also gave an IC50 [19] of 0.493 µM, an IC50 [20] of 14.8 nM and an IC50 [21] of 0.359 µM. The IC50 [22] was 0.189 µM, the IC50 [23] was 0.213 µM and the IC50 [24] was 0.395 µM. For the same compound, the IC50 [25] was 0.116 µM, the IC50 [26] was 64.6 nM and the IC50 [27] was 147 nM. It also gave an IC50 [28] of 0.202 µM, an IC50 [29] of 0.0501 µM and an IC50 [30] of 0.123 µM. For the same compound, the IC50 [31] was 0.148 µM, the IC50 [32] was 0.0805 µM and the IC50 [33] was 0.574 µM. It also gave an IC50 [34] greater than 1.02 µM, an IC50 [35] greater than 1.02 µM and an IC50 [36] of 160 nM. The IC50 [37] was greater than 1.02 µM, the IC50 [38] was 15.9 nM and the IC50 [39] was 0.0592 µM. It also gave an IC50 [40] of 0.0991 µM, an IC50 [41] of 0.0501 µM and an IC50 [42] of 86 nM. For the same compound, the IC50 [43] was 33.9 nM, the IC50 [44] was 0.211 µM and the IC50 [45] was 49.1 nM.
`O=C(O)c1ccc(-c2c[nH]c3ncc(-c4ccccc4)cc23)cc1C1CCCC1` [GSK-650394] was tested, and the IC50 [1] was greater than 16 µM, the IC50 [2] was 4.64 µM and the IC50 [3] was greater than 16 µM. It also gave an IC50 [4] of 8530 nM, an IC50 [5] of 9900 nM and an IC50 [6] of 13.6 µM. The IC50 [7] was greater than 16000 nM, the IC50 [8] was greater than 16 µM and the IC50 [9] was greater than 16 µM. The IC50 [10] was greater than 16000 nM, the IC50 [11] was greater than 16 µM and the IC50 [12] was greater than 16000 nM. It also gave an IC50 [13] greater than 16 µM, an IC50 [14] greater than 16000 nM and an IC50 [15] greater than 16 µM. For the same compound, the IC50 [16] was greater than 16 µM, the IC50 [17] was 3.21 µM and the IC50 [18] was 15.8 µM. It also gave an IC50 [19] greater than 16 µM, an IC50 [20] of 5490 nM and an IC50 [21] greater than 16 µM. It also gave an IC50 [22] greater than 16 µM, an IC50 [23] greater than 16 µM and an IC50 [24] greater than 16 µM. The IC50 [25] was greater than 16 µM, the IC50 [26] was 6130 nM and the IC50 [27] was greater than 16000 nM. For the same compound, the IC50 [28] was greater than 16 µM, the IC50 [29] was greater than 16 µM and the IC50 [30] was 7.93 µM. For the same compound, the IC50 [31] was greater than 16 µM, the IC50 [32] was greater than 16 µM and the IC50 [33] was greater than 16 µM. It also gave an IC50 [34] greater than 16 µM, an IC50 [35] greater than 16 µM and an IC50 [36] of 879 nM. For the same compound, the IC50 [37] was greater than 16 µM, the IC50 [38] was 5170 nM and the IC50 [39] was greater than 16 µM. For the same compound, the IC50 [40] was 9.13 µM, the IC50 [41] was greater than 16 µM and the IC50 [42] was 9580 nM. The IC50 [43] was 4230 nM, the IC50 [44] was greater than 16 µM and the IC50 [45] was greater than 16000 nM.
